The source of these data is ChEMBL document CHEMBL1156854, “Design and synthesis of piperazine-indole p38 alpha MAP kinase inhibitors with improved pharmacokinetic profiles” (Bioorg Med Chem Lett, 2010).

Data set [1] can be described thus: Oral bioavailability in monkey. It counts as ADME, organism-based, Macaca mulatta. Particulars: rhesus monkey, in vivo.
A short description of data set [2]: Metabolic stability in monkey liver microsomes assessed as demethylated metabolite level. The format is ADME, Macaca mulatta, Microsome. The following applies: rhesus monkey. (In general: Liver microsomes are a subcellular fraction often used to study metabolism.)
The test system of data set [3] is Liver microsomes. Nature of the data set: Metabolic stability in human liver microsomes assessed as parent compound level. It counts as ADME, Microsome.
Data set [4] in a line: Metabolic stability in monkey liver microsomes assessed as parent compound level. The format is ADME, Macaca mulatta, Microsome. The following applies: rhesus monkey.
The nature of data set [5]: Oral bioavailability in dog. The format is ADME, organism-based, Canis lupus familiaris. Particulars: in vivo.
Data set [6] relates to Liver microsomes. Nature of the data set: Metabolic stability in rat liver microsomes assessed as demethylated metabolite level. The format is ADME, Microsome.
The nature of data set [7]: Metabolic stability in dog liver microsomes assessed as parent compound level. The format is ADME, Canis lupus familiaris, Microsome.
The test system of data set [8] is Liver microsomes. Nature of the data set: Metabolic stability in rat liver microsomes assessed as parent compound level. It counts as ADME, Microsome.
Data set [9] is described as follows: Clearance in po dosed rat. The format is ADME, organism-based. Particulars: in vivo.
A short description of data set [10]: Clearance in po dosed dog. Particulars: in vivo. It counts as ADME, organism-based, Canis lupus familiaris.
Data set [11] has as its system Rattus norvegicus. Nature of the data set: Volume of distribution in po dosed rat. It counts as ADME, organism-based. The following applies: in vivo.
Data set [12] can be described thus: AUC in iv dosed dog. It counts as ADME, organism-based, Canis lupus familiaris. Particulars: plasma.
Data set [13] is described as follows: Cmax in rat. Particulars: in vivo. It counts as ADME, organism-based.
The nature of data set [14]: Tmax in rat. The following applies: in vivo. It counts as ADME, organism-based.
A short description of data set [15]: Oral bioavailability in rat. It counts as ADME, organism-based. The following applies: in vivo.
A short description of data set [16]: AUC in iv dosed rat. The format is ADME, organism-based. The following applies: plasma.
Data set [17] in a line: Tmax in dog. The format is ADME, organism-based, Canis lupus familiaris. Particulars: in vivo.
A short description of data set [18]: AUC in po dosed dog. The format is ADME, organism-based, Canis lupus familiaris. Particulars: plasma.
The nature of data set [19]: Tmax in monkey. It counts as ADME, organism-based, Macaca mulatta. Particulars: rhesus monkey, in vivo.
The nature of data set [20]: AUC in po dosed monkey. It counts as ADME, organism-based, Macaca mulatta. The following applies: rhesus monkey, plasma.
Data set [21] in a line: AUC in po dosed rat. It counts as ADME, organism-based. The following applies: plasma.
Data set [22] deals with Canis familiaris. Nature of the data set: Volume of distribution in po dosed dog. The format is ADME, organism-based, Canis lupus familiaris. Particulars: in vivo.
Data set [23] in a line: Cmax in dog. It counts as ADME, organism-based, Canis lupus familiaris. Particulars: in vivo.
Data set [24] can be described thus: Cmax in monkey. The format is ADME, organism-based, Macaca mulatta. The following applies: rhesus monkey, in vivo.

The term bioavailability denotes the share of a dose that reaches the circulation, judged against a reference dose that is usually intravenous. Regarding `C[C@@H]1CN(Cc2ccc(F)cc2)[C@@H](C)CN1C(=O)c1cc2c(C(=O)C(=O)N(C)C)cn(C)c2cc1Cl` [TALMAPIMOD], the bioavailability was found to be 12% in [1] and 69% in data set [5]. The Stability is 11.9% in data set [2]; 65.1% in [3]; 51.2% in [4]; 3.2% in data set [6]; 94.5% in [7]; 65.8% in data set [8].

By CL/F is commonly meant the apparent clearance, not corrected for the fraction that reaches the circulation. As usually defined, the AUC is concentration integrated over time. Usually Cmax stands for the highest concentration seen after dosing. Broadly, the Tmax is the time from dosing to the highest level. On to `C[C@@H]1CN(C(c2ccccc2)c2ccccc2)[C@@H](C)CN1C(=O)c1cc2c(C(=O)C(=O)N(C)C)cn(C)c2cc1Cl`, for which the CL/F in data set [9] was 20 mL/min/kg; in data set [10], 3.33 mL/min/kg. The Vd in [11] amounted to 2.7 L/kg; in [22], 6.5 L/kg. Moreover, the AUC in [12] was 3430 ng·h/mL; in data set [16] it was 810 ng·h/mL; in data set [18], 5610 ng·h/mL; in [20] it was 1830 ng·h/mL; in data set [21], 1270 ng·h/mL. Also, the maximum concentration (Cmax) in data set [13] turned out to be 367 ng/mL; in data set [23], 899 ng/mL; in [24], 360 ng/mL. The Stability came to 19.5% in data set [2]; 90.8% in data set [3]; 71.4% in [4]; 9.4% in data set [6]; 91.7% in [7]; 83.9% in [8]. The Tmax in data set [14] is 1.2 h; in data set [17] it was 1.3 h; in [19], 2 h. For the same compound, the results for the bioavailability in data set [15] and in data set [5] were 31% and 33%, respectively.
